Drawing on a melting point compilation (Tetko et al.; mined from patent text by program, amines drawn as free bases though some values may be those of a salt), this text covers melting point for 88 compounds.

The melting point is the temperature of the solid-liquid transition.

The compound `COC(=O)c1nc(C)n2c1C(C)N=C(c1ccccc1)c1cc(Cl)ccc1-2` (stereo not drawn) gave a melting point of 217 to 221 °C. In turn, `N#Cc1csc(CN2C(=O)C3(COc4cc5c(cc43)OCO5)c3ccccc32)c1` (stereo not drawn) showed a melting point of 207 to 209 °C. With `Cc1cccc(C)c1CCOCCCCCCNCc1c(CO)ccc(O)c1CO`, the melting point was in the range of 83 to 86 °C. The same measure for `N#CC1OC(=O)c2cccc(F)c21` (stereo not drawn): 93 to 96 °C; for `N#Cc1c[nH]cc1-c1cccc(Cl)c1F`: 178 °C; for `COc1ccc(C(=O)C2=C(c3ccccc3)c3ccc(OC)cc3S2=O)cc1` (stereo not drawn): 191 to 192 °C. The same measure for `COc1cc(C)ccc1Oc1ccc([N+](=O)[O-])cc1`: 78 to 80 °C; for `CC(C)COC(=O)Nc1ccc(Br)cc1`: 95 to 96 °C. The value for `CCCC(=O)c1cnc2c(OC)cccc2c1Nc1c(C)cc(O)c(O)c1C` was 151 to 153 °C; that for `O=C(O)C1CCCCC1n1nc(-c2c(-c3ccccc3)nn3ccccc23)ccc1=O` (stereo not drawn) was 164 °C; that for `CCCCc1nc2c(N)nc3ccccc3c2n1CCCCC(=O)N1CCOCC1` was 141 to 143 °C.

Consider `CC(C)C[C@H](NC(=O)c1ccco1)C(=O)N[C@@H](C(C)C)[C@@H](O)c1c(-c2ccccc2)c1=O`, for which the melting point is 101 to 105 °C. The value for `O=C(O)c1ccc(C#Cc2ccc(O)c(C34CC5CC(CC(C5)C3)C4)c2)cc1` was 254 to 255 °C. The same measure for `CCNC(=O)[C@@H](C[C@H](O)[C@H](CC1CCCCC1)NC(=O)[C@H](Cc1cscn1)NC(=O)OC(C)(C)C)C(C)(C)O`: 189 to 191 °C; for `COc1ccc(CN2C(=O)C(C)(c3cc(NC(N)=O)ccc3Cl)c3cc(Cl)ccc32)c(OC)c1` (stereo not drawn): 254 °C; for `CC(C)NCC(O)COc1cccc2c1SCCC2` (stereo not drawn): 91 to 92 °C.

Consider `Nc1c(Cl)cc(C(O)CNCCCCCC(=O)OCCc2cccc3ccccc23)cc1Cl` (stereo not drawn), for which the melting point lay in the range of 60 to 61 °C. The same measure for `Cc1cc(C(F)(F)C(F)(F)F)ccc1NC(=O)c1cccc(I)c1C(=O)NC(C)C`: 195 to 196 °C; for `Cc1c(CC(=O)NOCc2ccccc2)c2cc(OCc3nc4ccccc4s3)ccc2n1Cc1ccc(Cl)cc1`: 183 to 186 °C. `Cc1cc(C)c2c(n1)CCCC2=O` displayed a melting point of 54 to 57 °C. `O=CN[C@H]1CC[C@H](CCN2CCN(c3nccc4c3OCC4)CC2)CC1`: the melting point was 154 °C. As to `CCOC(=O)C(C#N)C(=O)c1nn(-c2ccccc2)c2c1CSc1ccccc1-2` (stereo not drawn), the melting point was 176 to 178 °C. The value for `Cc1nc(-c2ccc(Br)cc2)n(-c2ccc(S(N)(=O)=O)cn2)n1` was 221 to 222 °C; that for `COC1=NC(=O)N(C)S(=O)(=O)N1` was 195 to 199 °C; that for `CCc1n[nH]c(CCOc2ccc(S(C)(=O)=O)cc2)c1Oc1cc(C#N)cc(C#N)c1` was 88 to 90 °C. In turn, `O=C(NN=CC=Cc1ccc([N+](=O)[O-])o1)c1cn2ccsc2n1` showed a melting point of 332 °C.

Compound `O=C(Nc1cc(Cl)cc(C(F)(F)F)c1)Oc1ccc([N+](=O)[O-])cc1` had a melting point of 144 to 146 °C. In turn, `C[C@@H]1C[C@H](CC2CCCCC2)C(=O)O1` (relative stereo) displayed a melting point of 60 to 62 °C.

`COC(=O)COc1ccc(SCc2cc(-c3ccc(Cl)cc3)no2)c2c1CCC2` came in with a melting point of 92 to 94 °C. The value for `O=[N+]([O-])c1ccccc1OC[C@@H](O)CNCCc1ccc(Cl)c(Cl)c1` was 73 to 74 °C; that for `CCCCCCCCCCCCCCOc1ccc(N)cc1OCCCCCCCCCCCCCC` was 55 to 58 °C. As to `O=C(O)c1ccc(CCNC(=O)C2Cc3ccccc3N2S(=O)(=O)c2ccc(-c3cccc(C(F)(F)F)c3)cc2)cc1` (stereo not drawn), the melting point was 106 °C. Regarding `Cc1ccc(N2CCN(Cc3cnc(N)nc3N)CC2)cc1`, the melting point was in the range of 248 to 250 °C. The value for `CC(=O)N1[C@@H](C(=O)O)C(C)(C)S[C@H]1c1ccccc1` was 216 to 217 °C; that for `COc1ccc2c(c1)C(c1ccncc1)=Nc1cc(Cl)ccc1O2` was 158 to 160 °C. `O=C(O)CCCC/C=C(\c1ccc(-c2nc(C(=O)N[C@@H]3C[C@H]3c3ccccc3)co2)cc1)c1cccnc1`: the melting point is 78 to 87 °C.

Compound `COc1ccc(C(=C/C=C/C(=O)NCCCCc2cccnc2)c2ccc(OC)c(OC)c2)cc1OC` registered a melting point of 145 to 146 °C. The same measure for `CCOC(=O)CCCCCOc1ccc(-c2ccccc2)c(-c2ccccc2)n1`: 85 to 87 °C; for `COc1cccc(NN)n1`: 30 to 40 °C. In turn, `N#Cc1ccc(-c2ccc(Cl)cc2Cl)c(F)c1` registered a melting point of 65 to 67 °C. The same measure for `C#Cc1cccc(Nc2ncnc3cc4c(cc23)OCO4)c1`: > 350 °C; for `CCCn1nc(C(C)C)cc1Cc1ccc(-c2ccccc2-c2nnn[nH]2)cc1`: 147 to 149 °C. In turn, `Cc1ccsc1C(=O)Nc1ccc(I)cc1` showed a melting point of 141 to 142 °C. In turn, `COc1ccc(-c2nnc3c4ccccc4c(CCl)nn23)cc1` displayed a melting point of 203 to 206 °C. The same measure for `COc1ccc2c(c1)C(CC(=O)O)=C(C)C2=Cc1ccc(S(C)=O)cc1` (stereo not drawn): 200 to 204 °C; for `CC(=O)NCC=Cc1ccc2ncnc(Nc3ccc(Oc4ccc(C)nc4)c(Cl)c3)c2c1`: 254 to 256 °C; for `COc1cc(C#N)ccc1C(Br)C(Br)C(=O)c1cccc(C#N)c1` (stereo not drawn): 72 to 75 °C.

Consider `O=C(CCl)c1cc(Br)ccc1O`, for which the melting point was 79 °C. The value for `CC(C)[C@H](NC(=O)N(C)Cc1csc(N)n1)C(=O)N[C@@H](Cc1ccccc1)[C@H](O)[C@H](O)[C@H](Cc1ccccc1)NC(=O)OC(C)(C)C` was 103 to 107 °C; that for `O=C(NCCSc1ccccc1)n1cc(F)c(=O)[nH]c1=O` was 130 to 133 °C; that for `CCOC(=O)C1=C[C@@H](OC(CC)CC)[C@@H](NC(C)=O)[C@H](N=[N+]=[N-])[C@@H]1O` was 112 to 115 °C. The same measure for `CC(C)Oc1cc(-n2c(=O)[nH]c(C(F)(F)F)c(F)c2=O)c(F)cc1Cl`: 133 to 135 °C; for `O=c1ccn(-c2cc3[nH]c(=O)c(=O)[nH]c3cc2[N+](=O)[O-])cc1Cl`: > 300 °C. As to `CCOC(=O)c1cc2c(OC=O)c(OC[C@H]3CO3)ccc2[nH]1`, the melting point is 123 to 125 °C. The same measure for `CC1(C)C(=O)Oc2cc([N+](=O)[O-])c3ccc(Cn4cncn4)cc3c21`: 150 to 152 °C; for `OC1CCCc2sccc21` (stereo not drawn): 58 to 60 °C; for `COC(=O)c1c(N)cc(Cl)cc1[N+](=O)[O-]`: 114 to 116 °C. For `O=C1OC2(CCN(C(=O)Nc3cnc(-c4ccccc4)cn3)CC2)c2cc(F)ccc21`, the melting point lay in the range of 222 to 224 °C. `Cc1ccc(-c2ccc3c(c2)C=CCCO3)cc1` yielded a melting point of 98 to 100 °C. The value for `COc1cc(N)c(Cl)cc1C(=O)NN1CCN(Cc2ccc(N(C)C)cc2)CC1` was 208 to 210 °C; that for `COc1ccc(Cc2cnc(NCCc3ccccc3Cl)nc2N2CCc3cc(OC)c(OC)cc3C2)cc1OC` was 140 to 141 °C; that for `Cc1ccc(CN2CCN(C3=NC4(C=CC(=O)C(Cl)=C4)C(c4ccccc4)=C3)CC2)cc1` (stereo not drawn) was 161 °C. With `CCN(CC)CCNC(=O)Cn1cc(-c2ccccc2)c(-c2ccccc2)n1`, the melting point lay in the range of 80 to 83 °C. For the compound `CCCCN(C#N)C(=O)C(C)Oc1ccc(Oc2nc3ccc(Cl)cc3o2)cc1` (stereo not drawn), the melting point was 91 to 92 °C.

Compound `Cc1ccccc1-c1c(Cn2cnc3c(N)ncnc32)oc2ccc(Br)cc2c1=O` came in with a melting point of 252 to 255 °C.

Regarding `Cc1ccc(-c2ccc3c(c2)C=C(C(=O)Nc2ccc(CNc4cccnc4)cc2)CC3)cc1`, the melting point was 212 to 214 °C. In the case of `COC(=O)c1[nH]c2ccccc2c1Oc1ccccc1[N+](=O)[O-]`, the melting point was 201 to 202 °C.

In turn, `C=CCSc1ccc(Oc2ccccc2C)nn1` displayed a melting point of 78 to 80 °C. In turn, `O=C(O)[C@@H](O)Cc1ccc(O)c([N+](=O)[O-])c1` yielded a melting point of 111 °C.

Turning to `COc1ccc(-c2nsc(C(=O)O)c2C(=O)O)cc1OC`, the melting point fell in the range of 190 to 192 °C. Compound `CCOC(=O)C(C#N)=Cc1c(Cl)n(Cc2ccc(Cl)cc2)c2ccccc12` yielded a melting point of 179 to 180 °C. Compound `COc1ccc(Nc2ncc3cc4ccccc4n3n2)cc1` returned a melting point of 197 to 200 °C.

`CCOC(=O)c1cnoc1-c1cc(Cl)c(Cl)s1` yielded a melting point of 120 to 121 °C. The same measure for `COC(=O)[C@@H](CC(C)C)NC(=O)c1ccc2c(c1)OCO2`: 89 to 90 °C; for `NC[C@H]1CN(c2ccc(N3CCOCC3=O)cc2)C(=O)O1`: 145 to 147 °C; for `CCCCCNC(=O)N(C)c1cccc(-c2ccc(C=C(OC)C(=O)O)cc2OCCOCC)c1`: 78.2 °C. The same measure for `CC1(C)CC(=O)C(C)(C)c2cc(/C=C/c3ccc(C(=O)O)cc3)c(Cn3cccn3)cc21`: 265 to 266 °C. In the case of `CCOC(=O)c1cnc2sc3c(n12)CCC3`, the melting point lay within 101 to 102 °C.

`COc1ccc2c(c1)SC(C#N)C(=O)CO2` (stereo not drawn) had a melting point of 132 to 133 °C. The same measure for `Brc1ccc2cc(Cc3cc4ccc(Br)cc4o3)oc2c1`: 146 to 147 °C. The value for `N#Cc1cccc2c1CC(=NN)c1ccc(F)cc1S2` was 178 to 179 °C. Consider `Cc1cccc2c1C(=O)/C(=C(\N)c1ccccc1)S2`, for which the melting point lay in the range of 198 to 200 °C. For the compound `NC(=S)c1ccccc1-c1ccccc1`, the melting point amounted to 213 °C. As for `Cc1ccc(NC(=O)c2cccc(C(F)(F)F)c2)cc1-c1ccc2ccncc2c1`, the melting point was in the range of 148 to 152 °C.

`CC12CCC3c4ccc(C(=O)O)cc4CCC3C1CCC2C(=O)c1cccc2ccccc12` (stereo not drawn) yielded a melting point of 228 °C. The value for `O=C1OC(CCCCN2CCN(c3ccccn3)CC2)CN1c1ccccc1` (stereo not drawn) was 78 to 81 °C.

With `CCOCCOc1ccc2c(c1)C(N(CC)S(C)(=O)=O)CC(C)(C)O2` (stereo not drawn), the melting point lay within 73 to 75 °C. The same measure for `COC(=O)CN(CC(=O)OC)c1cccc([N+](=O)[O-])c1`: 54 to 57 °C.
